Activity calls are given as the source filed them. The calls are words filed in the database; no cut-off is given here.
Key:
[1] = Cytotoxicity against mock-infected human MT4 cells assessed as reduction in cell viability after 96 hrs by MTT assay; type: cell-based
[2] = tested on: Human immunodeficiency virus 1; assay: Antiviral activity against HIV1 3B infected in human MT4 cells assessed as protection against virus-induced cytopathogenicity after 4 days by MTT assay; type: functional, organism-based; conditions: Human immunodeficiency virus 1, 3B, MT4, 96 h
Escherichia coli = assay: Antibacterial activity against Escherichia coli DSM 1103; type: functional
Staphylococcus aureus = assay: Antibacterial activity against Staphylococcus aureus DSM 2569; type: functional
Enterococcus faecalis = assay: Antibacterial activity against Enterococcus faecalis DSM 2570; type: functional
PC-3 [3] = assay: Cytotoxicity against human PC3 cells assessed as growth inhibition at 10 uM after 3 days by XTT assay relative to control; type: functional; conditions: PC-3, 72 h, read-out: GI
PC-3 [4] = assay: Cytotoxicity against human PC3 cells assessed as growth inhibition at 10 nM after 3 days by XTT assay relative to control; type: functional; conditions: PC-3, 72 h, read-out: GI
HT-29 [5] = assay: Cytotoxicity against human HT-29 cells assessed as growth inhibition at 10 nM after 3 days by XTT assay; type: functional, cell-based
Caenorhabditis elegans [6] = assay: Antihelmintic activity against Caenorhabditis elegans Bristol N2 assessed as mortality at 100 ug/ml after 30 mins by microscopic analysis (reference value: 3 +/- 3%); type: functional
Caenorhabditis elegans [7] = assay: Antihelmintic activity against Caenorhabditis elegans Bristol N2 assessed as mortality at 12.5 ug/ml after 30 mins by microscopic analysis; type: functional, organism-based
HT-29 [8] = assay: Cytotoxicity against human HT-29 cells assessed as growth inhibition at 125 uM after 3 days by XTT assay relative to control; type: functional; conditions: HT-29, 72 h, read-out: GI
PC-3 [9] = assay: Cytotoxicity against human PC3 cells assessed as growth inhibition at 125 uM after 3 days by XTT assay relative to control; type: functional; conditions: PC-3, 72 h, read-out: GI
Caenorhabditis elegans [10] = assay: Antihelmintic activity against Caenorhabditis elegans Bristol N2 assessed as mortality at 10 ug/ml after 30 mins by microscopic analysis (reference value: 3 +/- 3%); type: functional, organism-based

| Molecule | CC50 at 96 h [1] [µM] | EC50 [2] [µM] | MIC (Escherichia coli) [µg/mL] | MIC (Staphylococcus aureus) [µg/mL] | MIC (Enterococcus faecalis) [µg/mL] | inhibition of growth at 10 µM (PC-3 [3]) [%] | inhibition of growth at 0.01 µM (PC-3 [4]) [%] | growth inhibition (GI) (HT-29 [5]) | Activity (Caenorhabditis elegans [6]) [%] | Activity (Caenorhabditis elegans [7]) | inhibition of growth at 125 µM (HT-29 [8]) [%] | inhibition of growth at 125 µM (PC-3 [9]) [%] | Activity (Caenorhabditis elegans [10]) [%] |
| --- | --- | --- | --- | --- | --- | --- | --- | --- | --- | --- | --- | --- | --- |
| CC(C)=CCCC1(C)Oc2c(c(O)cc(O)c2C(=O)C(C)C)CC1O (configuration not stated) | 84 | > 84 | > 1 | > 1 | > 1 | < 20 | < 20 | inactive |  |  |  |  |  |
| CC(C)=CCC/C(C)=C/Cc1c(O)cc(O)c(C(=O)c2ccccc2)c1O | 69 | > 69 | > 1 | > 1 | > 1 | < 20 | < 20 | inactive | 0.7 | inactive |  |  |  |
| CCC(C)C(=O)c1c(O)cc2c3c1OC(C)(C)C1CCC(C)(CC31)O2 (configuration not stated) [EMPETRIFRANZINAN C] | 45 | > 45 | > 1 | > 1 | > 1 | 20 | < 20 | inactive |  |  |  |  |  |
| C[C@@H]1CC[C@@]2(OC1)O[C@H]1[C@@H](O)[C@H]3[C@@H]4CC[C@H]5C[C@@H](O[C@@H]6O[C@H](CO)[C@H](O[C@@H]7O[C@H](CO)C(O)[C@H](O[C@@H]8OC[C@@H](O)[C@H](O)[C@H]8O)[C@H]7O[C@@H]7O[C@H](CO)[C@H](O)[C@H](O[C@@H]8O[C@H](CO)[C@@H](O)[C@H](O)[C@H]8O)[C@H]7O)[C@H](O)[C@H]6O)[C@H](O)C[C@]5(C)[C@H]4CC[C@]3(C)[C@H]1[C@@H]2C (some centres not stated) [DIGITONIN] |  |  |  |  |  |  |  |  |  |  | 100 | 100 |  |
| CCC(C)C(=O)c1c(O)cc(O)c2c1O[C@](C)(CCC=C(C)C)[C@@H](O)C2 (some centres not stated) [EMPETRIKARINOL B] | 45 | > 45 | > 1 | > 1 | > 1 | < 20 | < 20 | inactive | 0.7 | inactive |  |  |  |
| CC(C)C(=O)c1c(O)cc(O)c2c1O[C@]1(C)CC[C@@H](O)C(C)(C)[C@H]1C2 (relative stereo) | 41 | > 41 | > 1 | > 1 | > 1 | < 20 | < 20 | inactive | 0.7 | inactive |  |  |  |
| CCC(C)C(=O)c1c(O)cc(O)c(C/C=C(\C)CCC=C(C)C)c1O (configuration not stated) | 26.7 | > 26.7 | > 1 | > 1 | > 1 | 20 | < 20 | inactive | 37 | inactive |  |  |  |
| CC(C)C(=O)c1c(O)cc2c3c1OC(C)(C)C1CCC(C)(CC31)O2 (configuration not stated) | 18.7 |  |  |  |  |  |  |  |  |  |  |  |  |
| IVERMECTIN |  |  |  |  |  |  |  |  |  |  |  |  | 99 |
| CC(C)=CCC/C(C)=C/Cc1c(O)cc(O)c(C(=O)C(C)C)c1O | > 100 | > 100 | > 1 | > 1 | > 1 | < 20 | < 20 | inactive | 0.7 | inactive |  |  |  |
| CC(C)C(=O)c1c(O)cc2c3c1OC1(C)CCC(C3C1)C(C)(C)O2 (configuration not stated) | > 100 | > 100 | > 1 | > 1 | > 1 | 20 | < 20 | inactive |  |  |  |  |  |
| c1ccc2[nH]c(-c3cscn3)nc2c1 [THIABENDAZOLE] |  |  |  |  |  |  |  |  | 19 |  |  |  |  |
| CCC(C)C(=O)c1c(O)cc2c3c1OC1(C)CCC(C3C1)C(C)(C)O2 (configuration not stated) | > 100 | > 100 | > 1 | > 1 | > 1 | < 20 | < 20 | inactive |  |  |  |  |  |
